In brackets after ≈: the same amount, converted by molar mass. Entries after “also recorded” stand apart in the source; their conditions may differ.
Columns and labels:
[1] = target: T1, wild type M. tuberculosis RpsA binding to tmRNA (Mycobacterium tuberculosis, UniProt P9WH43); settings: for effect on tmRNA binding to wild type RpsA: FIG. 5A, POA Lanes 2-7, PZA (200 g/ml), INH (1 g/ml)
T1 sequence (P9WH43 1-481): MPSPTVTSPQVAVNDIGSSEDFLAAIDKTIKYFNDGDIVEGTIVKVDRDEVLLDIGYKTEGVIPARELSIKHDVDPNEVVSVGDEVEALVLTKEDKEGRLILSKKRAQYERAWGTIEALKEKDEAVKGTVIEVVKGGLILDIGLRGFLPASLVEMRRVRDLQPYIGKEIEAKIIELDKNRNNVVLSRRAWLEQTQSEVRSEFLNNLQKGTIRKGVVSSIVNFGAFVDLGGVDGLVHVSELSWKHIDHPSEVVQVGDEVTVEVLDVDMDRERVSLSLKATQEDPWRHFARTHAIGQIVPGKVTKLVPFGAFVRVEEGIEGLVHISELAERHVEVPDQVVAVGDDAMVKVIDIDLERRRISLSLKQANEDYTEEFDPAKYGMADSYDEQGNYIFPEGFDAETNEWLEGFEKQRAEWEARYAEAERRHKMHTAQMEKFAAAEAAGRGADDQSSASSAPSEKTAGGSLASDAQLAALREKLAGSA

Endonuclease IV (Rv0670) [2] = target: T2, Endonuclease IV (Rv0670) (Mycobacterium tuberculosis, UniProt P9WQ13); type: biochemical, M. tuberculosis
Endonuclease IV (Rv0670) [3] = target: T2, Endonuclease IV (Rv0670); test: Endonuclease IV (Rv0670) activity on oligonucleotides with AP, U or H lesions; type: biochemical, M. tuberculosis; settings: oligos with AP, U or H lesion; POA 2, 4, 8, 16, 25 and 34 mM; INH and PZA 25 mM
[4] = target: M. tuberculosis H37Rv RpsA (WT) (Mycobacterium tuberculosis, UniProt P9WH43); test: biochemical; type: binding
M. smegmatis RpsA = target: T3, M. smegmatis RpsA (Mycolicibacterium smegmatis, UniProt A0QYY6); type: binding; settings: 10 μM RpsA titrated with 100 μM POA
T3 construct: made in house
T3 sequence (A0QYY6 1-479): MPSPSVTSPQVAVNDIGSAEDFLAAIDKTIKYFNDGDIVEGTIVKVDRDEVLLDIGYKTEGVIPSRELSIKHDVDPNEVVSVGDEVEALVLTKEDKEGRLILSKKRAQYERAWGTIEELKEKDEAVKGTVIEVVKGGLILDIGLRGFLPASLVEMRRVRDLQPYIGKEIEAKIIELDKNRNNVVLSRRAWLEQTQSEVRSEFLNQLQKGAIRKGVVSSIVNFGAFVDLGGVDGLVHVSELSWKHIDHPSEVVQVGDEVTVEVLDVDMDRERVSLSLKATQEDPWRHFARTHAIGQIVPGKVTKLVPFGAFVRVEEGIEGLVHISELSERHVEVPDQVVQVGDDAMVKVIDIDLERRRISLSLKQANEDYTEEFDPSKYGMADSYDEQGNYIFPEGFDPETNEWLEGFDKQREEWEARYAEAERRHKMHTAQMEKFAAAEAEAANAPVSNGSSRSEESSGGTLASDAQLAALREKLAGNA

[5] = target: M. tuberculosis ribosome, tmRNA and SmpB (trans-translation) (Mycobacterium tuberculosis, UniProt P9WH43); type: biochemical
[6] = target: M. tuberculosis ribosome (canonical translation) (Mycobacterium tuberculosis, UniProt P9WH43); type: biochemical
[7] = target: ribosome from M. smegmatis (trans-translation) (Mycolicibacterium smegmatis, UniProt A0QYY6); type: biochemical
[8] = target: ribosome from E. coli (trans-translation) (Escherichia coli, UniProt P0AG67); type: biochemical
[9] = system: M. tuberculosis cell lysates; type: binding
M. tuberculosis = test: MIC of POA as stated in the text; type: cell-based; settings: Mycobacterium tuberculosis, read-out: MIC concentration
[10] = system: Mtb clinical isolate DHM444 / H37Rv; test: microbe, parasite or virus in culture; type: cell-based, M. tuberculosis; settings: Mycobacterium tuberculosis, PZA, sensitive control strain H37Rv

T2 sequence (P9WQ13 whole entry): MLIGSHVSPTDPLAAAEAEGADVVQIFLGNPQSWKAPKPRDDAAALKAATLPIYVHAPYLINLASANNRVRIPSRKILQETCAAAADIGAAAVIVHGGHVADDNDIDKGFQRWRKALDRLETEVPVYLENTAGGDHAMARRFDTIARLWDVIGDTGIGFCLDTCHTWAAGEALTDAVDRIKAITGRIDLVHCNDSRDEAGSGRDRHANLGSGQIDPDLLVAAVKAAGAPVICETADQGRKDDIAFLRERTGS

NNC(=O)c1ccncc1 [INH, isoniazid]
effect on tmRNA binding to wild type RpsA [1]: no effect; also recorded: not affected
inhibition of Rv0670 (Endo IV/V) activity (Endonuclease IV (Rv0670) [2]): no inhibition and not
inhibition of Rv0670 endonuclease activity (Endonuclease IV (Rv0670) [3]): did not inhibit

O=C(O)c1cnccn1 [POA, 2-pyrazinecarboxylic acid]
binding to wild type RpsA (ITC) [4]: bound; also recorded: specifically bind
ΔS (ITC) ([4]; pH 7.4): 27.6 cal·mol^−1·K^−1
Kd ([4]; read-out: K (binding constant, ITC)): 133 nM
binding to M. smegmatis RpsA (ITC) (M. smegmatis RpsA): only weakly; also recorded: only very weakly
effect on tmRNA binding to wild type RpsA [1]: Concentration-dependent inhibition
inhibition of wild type Mtb RpsA binding to tmRNA ([1]; POA at its MIC concentration of 50 μg/ml): inhibited
concentration inhibiting trans-translation of DHFR with the rare codon cluster [5]: ≥ 25 µg/mL
inhibition of trans-translation of the DHFR product [5]: inhibited
trans-translation product DHFR [5]: still present
inhibition of trans-translation, densitometry of band intensities ([5]; n=5): Concentration-dependent inhibition
effect on conventional protein synthesis (canonical translation) [6]: no effect; also recorded: did not inhibit
effect on translation of the normal DHFR gene [6]: did not affect
inhibition of trans-translation [7]: nor did it inhibit; also recorded: did not inhibit
inhibition of trans-translation [8]: nor did it inhibit; also recorded: did not inhibit
inhibition of Rv0670 (Endo IV/V) activity (Endonuclease IV (Rv0670) [2]): inhibited the activity of Rv0670 (Endo IV/V) completely
reversibility of Endo IV/V inhibition (Endonuclease IV (Rv0670) [2]; dilution or dialysis): irreversibly
inhibition of Rv0670 endonuclease activity (Endonuclease IV (Rv0670) [3]): inhibited Rv0670 activity specifically in a dose dependent manner; also recorded: specific inhibition
proteins bound to POA identified by Mass Spectrometry ([9]; Examples 8-16, columns with 5-hydroxyl- and 6-hydroxyl-2-pyrazinecarboxylic acid): 9 proteins
proteins that bound to POA ([9]; M. tuberculosis cell lysates, column with 5-hydroxyl-2-pyrazinecarboxylic acid, FIG. 1): several proteins
major POA binding protein ([9]; POA-linked column, mass spectrometry): RpsA
MIC (M. tuberculosis): 50 µg/mL

NC(=O)c1cnccn1 [PZA, Pyrazinamide]
MIC [10]: 100 µg/mL (≈ 812 µM)
binding to wild type RpsA (ITC) [4]: did not bind
effect on tmRNA binding to wild type RpsA [1]: no effect; also recorded: not affected
inhibition of Rv0670 (Endo IV/V) activity (Endonuclease IV (Rv0670) [2]): no inhibition and not
inhibition of Rv0670 endonuclease activity (Endonuclease IV (Rv0670) [3]): did not inhibit

O=C(O)c1cccnc1 [nicotinic acid]
inhibition of trans-translation [5]: did not inhibit

— patent US20130149701A1, “METHODS OF IDENTIFYING THERAPEUTIC AGENTS FOR TREATING PERSISTER AND BACTERIAL INFECTION” (priority 2010, published 2013)
